According to patent publication US6831075B2, “Heterocyclic substituted pyrazolones” (Cephalon, Inc., priority 1999, dated 2004):

Tests used:
Assay type in all cases: biochemical
[1] = molecular target: T1, recombinant human baculovirus-expressed FGFR1 cytoplasmic domain (Homo sapiens, UniProt P11362); assay: FGFR1 kinase inhibition assay (ELISA-based, time-resolved fluorescence); settings: 1 uM compound; 20 μM ATP
T1 construct: recombinant human baculovirus-expressed FGFR1 cytoplasmic domain; host or cells: baculovirus expression system
Description: Inhibition of Fibroblast Growth Factor Receptor-1 (FGFR1) Kinase Activity
The FGFR1 kinase activity was measured using an ELISA-based format in a 96-well FluoroNUNC Maxisorp plate with a time-resolved fluorescence readout as described for trkA kinase. The plate was coated with 100 μl/well of substrate solution (recombinant human PLC-γ/GST) at a concentration of 10 μg/ml in Tris buffered saline (TBS). The FDGFR1 activity was assayed in 100-μl assay micture containing 50 mM HEPES (pH 7.4), 20 μM ATP, 10 mM MnCl2, 0.1% BSA, 2% DMSO, and 15 ng/ml recombinant human baculovirus-expressed FGFR1 cytoplasmic domain (prephosphorylated prior to use). Compounds were screened for inhibition of the FGFR1 kinase activity at a conentration of 1 μM. The kinase reaction was allowed to proceed at 37° C. for 15 minutes. The detection antibody, europium-labeled anti-phosphotyrosine antibody (Wallace #CR04-100), was added at 1:5000 dilution in block buffer (3% BSA in TBST). After a 1-hour incubation at 37° C., 100 μl of enhancement solution (Wallac #1244-105) and the plate was gently agitated. After 5 min, the fluorescence of the resulting solutions measured using the BMG Fluostar (Model # 403).

[2] = molecular target: T2, baculoviral GST-MLK1KD (Homo sapiens, UniProt P80192); assay: Mixed Lineage Kinase-1 inhibition assay (Millipore Multiscreen TCA in-plate, 32P); settings: for MLK-1 Kinase % inhibition @ 1 uM: 1 uM compound, 60 μM ATP; for inhibition at 1 µM: read-out: MLK-1 Kinase % inhibition @ 1 uM
T2 construct: 1 μg/ml of baculoviral GST-MLK1KD; GST (N); host or cells: baculovirus expression system
Description: Inhibition of Mixed Lineage Kinase-1 Activity
The kinase activity of MLK1 was assessed using the Millipore Multiscreen TCA “in-plate” format as described for protein kinase C (Pitt & Lee, J. Biomol. Screening, 1: 47-51, 1996). Briefly, each 50-μl assay mixture contained 20 mM Hepes, pH 7.0, 1 mM EGTA, 10 mM MgCl2, 1 mM DTT, 25 mM β-glycerophosphate, 60 μM ATP, 0.25 μCi [γ-^32P]ATP, 0.1% BSA, 500 μg/ml myelin basic protein (UBI #13-104), 2% DMSO, 1 μM of test compound, and 1 μg/ml of baculoviral GST-MLK1KD. Samples were incubated for 15 min at 37° C. The reaction was stopped by adding ice cold 50% TCA and the protein were allowed to precipitate for 30 min at 4° C. The plates were then washed with ice cold 25% TCA. Supermix scintillation cocktail was added, and the plates were allowed to equilibrate for 1-2 hours prior to counting using the Wallac MicroBeta 1450 PLUS scintillation counter.

[3] = molecular target: T3, baculoviral GST-MLK3KD (Homo sapiens, UniProt Q16584); assay: Mixed Lineage Kinase-3 inhibition assay (Millipore Multiscreen plate, 32P); settings: 1 uM compound, 100 μM ATP; for inhibition at 1 µM: read-out: MLK-3 Kinase % inhibition @ 1 uM
T3 construct: 2 μg/ml of baculoviral GST-MLK3KD; GST (N); host or cells: baculovirus expression system
Description: Inhibition of Mixed Lineage Kinase-3 Activity
Assays were performed using the Millipore Multiscreen plate format as described for MLK1. Briefly, each 50-μl assay mixture contained 20 mM Hepes, pH 7, 1 mM EGTA, 10 mM MgCl2, 1 mM DTT, 25 mM β-glycerophosphate, 100 μM ATP, 0.25 μCi [γ-^32P]ATP, 0.1% BSA, 500 μg/ml myelin basic protein (UBI #13-104), 2% DMSO, various concentrations of test compound, and 2 μg/ml of baculoviral GST-MLK3KD. Samples were incubated for 15 min at 37° C. The reaction was stopped by adding ice cold 50% TCA and the proteins were allowed to precipitate for 30 min at 4° C. The plates were then washed with ice cold 25% TCA. Supermix scintillation cocktail was added, and the plates were allowed to equilibrate for 1-2 hours prior to counting.

[4] = molecular target: T4, baculovirus-expressed human trkA cytoplasmic domain (Homo sapiens, UniProt P04629); assay: trkA tyrosine kinase inhibition assay (ELISA-based); settings: 1 uM compound; 40 μM ATP
T4 construct: baculovirus-expressed human trkA cytoplasmic domain; host or cells: baculovirus expression system
Description: Inhibition of trkA Tyrosine Kinase Activity
Selected heterocyclic substituted pyrazolones were tested for their ability to inhibit the kinase activity of baculovirus-expressed human trkA cytoplasmic domain using an ELISA-based assay as previously described (Angeles et al., Anal. Biochem. 236: 49-55, 1996). Briefly, a 96-well microtiter plate was coated with substrate solution (recombinant human phospholipase C-γl/glutathione S-transferase fusion protein (Rotin et al., EMBO J., 11: 559-567, 1992). Inhibition studies were performed in 100 μl assay mixtures containing 50 mM Hepes, pH 7.4, 40 μM ATP, 10 mM MnCl2, 0.1% BSA, 2% DMSO, and various concentrations of inhibitor. The reaction was initiated by addition of trkA kinase and allowed to proceed for 15 minutes at 37° C. An antibody to phosphotyrosine (UBI) was then added, followed by a secondary enzyme-conjugated antibody, alkaline phosphatase-labelled goat anti-mouse IgG (Bio-Rad). The activity of the bound enzyme was measured via an amplified detection system (Gibco-BRL). Inhibition data were analyzed using the sigmoidal dose-response (variable slope) equation in GraphPad Prism.

T2 sequence (P80192 144-412 limits assumed): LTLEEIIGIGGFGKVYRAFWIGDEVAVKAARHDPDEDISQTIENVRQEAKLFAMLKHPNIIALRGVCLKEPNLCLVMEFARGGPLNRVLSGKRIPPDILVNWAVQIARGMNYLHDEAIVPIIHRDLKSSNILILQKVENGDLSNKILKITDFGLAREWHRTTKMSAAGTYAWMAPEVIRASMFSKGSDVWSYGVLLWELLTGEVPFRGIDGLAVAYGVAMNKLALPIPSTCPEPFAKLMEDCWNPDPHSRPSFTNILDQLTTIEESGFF
T1 sequence (P11362 398-822 limits assumed): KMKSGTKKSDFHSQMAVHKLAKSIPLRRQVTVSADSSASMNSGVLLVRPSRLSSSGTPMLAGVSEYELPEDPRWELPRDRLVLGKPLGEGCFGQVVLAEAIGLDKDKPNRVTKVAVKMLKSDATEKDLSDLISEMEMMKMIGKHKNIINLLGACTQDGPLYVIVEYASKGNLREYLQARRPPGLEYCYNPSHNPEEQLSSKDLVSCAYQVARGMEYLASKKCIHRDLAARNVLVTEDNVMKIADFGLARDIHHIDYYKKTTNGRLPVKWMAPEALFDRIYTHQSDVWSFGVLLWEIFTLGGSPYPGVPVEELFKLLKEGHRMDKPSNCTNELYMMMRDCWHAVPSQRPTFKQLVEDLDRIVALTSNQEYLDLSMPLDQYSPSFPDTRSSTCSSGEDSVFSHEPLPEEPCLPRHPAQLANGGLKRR
T4 sequence (P04629 440-796 limits assumed): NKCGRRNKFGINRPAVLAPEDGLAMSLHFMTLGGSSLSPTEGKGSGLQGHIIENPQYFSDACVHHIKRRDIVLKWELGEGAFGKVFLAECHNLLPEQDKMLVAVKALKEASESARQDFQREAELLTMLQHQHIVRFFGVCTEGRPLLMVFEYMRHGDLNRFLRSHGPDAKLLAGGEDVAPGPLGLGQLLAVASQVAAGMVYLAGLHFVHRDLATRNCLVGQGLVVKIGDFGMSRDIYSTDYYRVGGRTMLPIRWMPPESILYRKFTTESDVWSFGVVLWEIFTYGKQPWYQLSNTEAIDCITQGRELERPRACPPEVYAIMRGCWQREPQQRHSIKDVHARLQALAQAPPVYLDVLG
T3 sequence (Q16584 117-379 limits assumed): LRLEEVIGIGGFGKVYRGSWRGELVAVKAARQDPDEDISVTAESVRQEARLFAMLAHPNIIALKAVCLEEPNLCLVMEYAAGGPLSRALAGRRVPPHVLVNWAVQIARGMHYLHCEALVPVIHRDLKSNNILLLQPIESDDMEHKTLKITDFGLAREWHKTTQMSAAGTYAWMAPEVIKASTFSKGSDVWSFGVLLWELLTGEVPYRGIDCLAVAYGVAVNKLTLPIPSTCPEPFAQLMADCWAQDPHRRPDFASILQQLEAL

Row | SMILES | FGFR1 % inhibition @ 1 uM [1] | MLK-1 Kinase % inhibition @ 1 uM [2] | MLK-3 Kinase % inhibition @ 1 uM [3] | trkA % inhibition @ 1 uM [4] | inhibition at 1 µM [1] | inhibition at 1 µM [2] | inhibition at 1 µM [3] | inhibition at 1 µM [4]
1 | Cc1cc(C)c(C=C2C(=O)NN=C2c2cccn2C)[nH]1 [Compound 55] | 36% | −5% | 26% | 47% | – | – | – | –
2 | O=C1NN=C(c2ccoc2)C1=Cc1c[nH]c2cccc(OCc3ccccc3)c12 [Compound 18] | 22% | 14% | 47% | 70% | – | – | – | –
3 | O=C1NN=C(c2ccoc2)C1=Cc1cn(Cc2ccccc2)c2ccccc12 [Compound 68] | 27% | 17% | 20% | 42% | – | – | – | –
4 | Cc1cc(C)c(C=C2C(=O)NN=C2c2ccn(C)c2)[nH]1 [Compound 23] | 31% | 30% | 69% | 26% | – | – | – | –
5 | CCc1c(C=C2C(=O)NN=C2c2ccoc2)[nH]c(C(=O)OCc2ccccc2)c1C [Compound 5] | −2% | 14% | −9% | 2% | – | – | – | –
6 | N#CCCn1cc(C=C2C(=O)NN=C2c2ccoc2)c2ccccc21 [Compound 65] | 21% | 10% | 7% | 22% | – | – | – | –
7 | O=C1NN=C(c2ccoc2)C1=Cc1ncc[nH]1 [Compound 15] | 10% | −3% | −17% | 15% | – | – | – | –
8 | Cc1cc(C)c(C=C2C(=O)NN=C2c2ccsc2)[nH]1 [Compound 37, 4-[(3,5-dimethylpyrrol-2-yl)methylene]-3-(3-thienyl)-2-pyrazolin-5-one] | – | – | – | – | 32% | 15% | 79% | 28%
9 | Cc1cc(C)c(C=C2C(=O)NN=C2c2ccoc2)[nH]1 [Compound 1] | 6% | 12% | 28% | 24% | – | – | – | –
10 | N#CCCn1cc(C=C2C(=O)NN=C2c2cccs2)c2ccccc21 [Compound 66] | 29% | 11% | 11% | 32% | – | – | – | –
11 | Cc1ccc2c(C=C3C(=O)NN=C3c3ccn(C)c3)c[nH]c2c1 [Compound 33] | 27% | 8% | 28% | 32% | – | – | – | –
12 | COc1ccc2[nH]cc(C=C3C(=O)NN=C3c3ccco3)c2c1 [Compound 51] | 9% | 26% | 47% | 56% | – | – | – | –
13 | COc1ccc2[nH]cc(C=C3C(=O)NN=C3c3ccoc3)c2c1 [Compound 11] | 24% | 21% | 31% | 65% | – | – | – | –
14 | Cn1cc(C=C2C(=O)NN=C2c2cc3ccccc3o2)c2ccccc21 [Compound 59] | 29% | 41% | 47% | 40% | – | – | – | –
15 | Cc1cc(C)c(C=C2C(=O)NN=C2c2cnccn2)[nH]1 [Compound 74, 4-[(3,5-dimethylpyrrol-2-yl)methylene]-3-pyrazin-2-yl-2-pyrazolin-5-one] | – | – | – | – | 48% | 44% | 72% | 53%
16 | COC(=O)c1ccc2[nH]cc(C=C3C(=O)NN=C3c3ccoc3)c2c1 [Compound 16] | 1% | 18% | 12% | 29% | – | – | – | –
17 | CC(C)Cn1cc(C=C2C(=O)NN=C2c2nccs2)c2ccccc21 [Compound 73] | 19% | −1% | 5% | 8% | – | – | – | –
18 | O=C1NN=C(c2ccco2)C1=Cc1cn(CCOCc2ccccc2)c2ccccc12 [Compound 71] | 26% | 9% | 9% | 15% | – | – | – | –
19 | O=C1NN=C(c2cccs2)C1=Cc1cn(Cc2ccccc2)c2ccccc12 [Compound 75] | 26% | 5% | 24% | 23% | – | – | – | –
20 | Cn1cc(C=C2C(=O)NN=C2c2ccoc2)c2ccccc21 [Compound 20] | 27% | 21% | 57% | 60% | – | – | – | –
21 | Cc1cc(C)c(C=C2C(=O)NN=C2c2c(C)coc2C)[nH]1 [Compound 27] | 36% | 6% | 44% | 49% | – | – | – | –
